PubChem BioAssay (NCI)
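Results reflect a 48-hour exposure of cells in 96-well plates to compound at five concentrations. TGI denotes the concentration required for complete inhibition of growth.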

Experiments:
Assay in all cases: growth of human tumour cells (NCI), 48 h
LXFL 529 NSCLC = tested on: LXFL 529 NSCLC
SNB-78 CNS = tested on: SNB-78 CNS
SK-MEL-2 melanoma = tested on: SK-MEL-2 melanoma
SN12C renal = tested on: SN12C renal
NCI-H226 lung = tested on: NCI-H226 lung
DMS 273 small cell lung = tested on: DMS 273 small cell lung
M14 melanoma = tested on: M14 melanoma
SF-268 CNS = tested on: SF-268 CNS
ACHN renal = tested on: ACHN renal
MALME-3M melanoma = tested on: MALME-3M melanoma
HCC-2998 colon = tested on: HCC-2998 colon
SR leukemia = tested on: SR leukemia
TK-10 renal = tested on: TK-10 renal
HOP-18 NSCLC = tested on: HOP-18 NSCLC
HCT-116 colon = tested on: HCT-116 colon
CAKI-1 renal = tested on: CAKI-1 renal
A549 NSCLC = tested on: A549 NSCLC
UACC-257 melanoma = tested on: UACC-257 melanoma
HOP-62 NSCLC = tested on: HOP-62 NSCLC
SK-OV-3 ovarian = tested on: SK-OV-3 ovarian
RXF 393 renal = tested on: RXF 393 renal
LOX IMVI melanoma = tested on: LOX IMVI melanoma
NCI-H522 lung = tested on: NCI-H522 lung
UO-31 renal = tested on: UO-31 renal
NCI-H23 lung = tested on: NCI-H23 lung
RXF-631 renal = tested on: RXF-631 renal
CCRF-CEM leukemia = tested on: CCRF-CEM leukemia
RPMI-8226 leukemia = tested on: RPMI-8226 leukemia
M19-MEL melanoma = tested on: M19-MEL melanoma
NCI-H460 lung = tested on: NCI-H460 lung
SK-MEL-5 melanoma = tested on: SK-MEL-5 melanoma
U251 CNS = tested on: U251 CNS
OVCAR-3 ovarian = tested on: OVCAR-3 ovarian
786-0 renal = tested on: 786-0 renal
SNB-19 CNS = tested on: SNB-19 CNS
SW-620 colon = tested on: SW-620 colon
SF-295 CNS = tested on: SF-295 CNS
OVCAR-5 ovarian = tested on: OVCAR-5 ovarian
KM12 colon = tested on: KM12 colon
IGROV1 ovarian = tested on: IGROV1 ovarian
OVCAR-4 ovarian = tested on: OVCAR-4 ovarian
SNB-75 CNS = tested on: SNB-75 CNS
DMS 114 small cell lung = tested on: DMS 114 small cell lung
MOLT-4 leukemia = tested on: MOLT-4 leukemia
HOP-92 NSCLC = tested on: HOP-92 NSCLC
EKVX NSCLC = tested on: EKVX NSCLC
K-562 leukemia = tested on: K-562 leukemia
SK-MEL-28 melanoma = tested on: SK-MEL-28 melanoma
A498 renal = tested on: A498 renal
SF-539 CNS = tested on: SF-539 CNS
HT29 colon = tested on: HT29 colon
OVCAR-8 ovarian = tested on: OVCAR-8 ovarian
UACC-62 melanoma = tested on: UACC-62 melanoma
COLO 205 colon = tested on: COLO 205 colon
HCT-15 colon = tested on: HCT-15 colon
DLD-1 colon = tested on: DLD-1 colon
HL-60(TB) leukemia = tested on: HL-60(TB) leukemia
XF 498 CNS = tested on: XF 498 CNS
KM20L2 colon = tested on: KM20L2 colon

Measured: TGI

CCCCCCCCCCC(C)CCCCCCC(=O)O (stereo not given)
not listed: XF 498 CNS | KM20L2 colon
> 100 µM: all other assays above

O=C1CSc2cc([N+](=O)[O-])ccc2N1
not listed: SR leukemia | UO-31 renal | RPMI-8226 leukemia | HOP-92 NSCLC | HL-60(TB) leukemia
> 100 µM: all other assays above

Cc1ccc(CCC(=O)C(=O)O)s1
90.3 µM: CAKI-1 renal
48.6 µM: UACC-62 melanoma
not listed: NCI-H226 lung | RXF 393 renal | LOX IMVI melanoma | 786-0 renal | DLD-1 colon
> 100 µM: all other assays above

CCN(CC)CC(=N)N(CC)c1ccccc1
not listed: DMS 273 small cell lung | SR leukemia | RXF-631 renal | HT29 colon
> 100 µM: all other assays above
